From ChEMBL document CHEMBL4261496, “Targeting quinolone- and aminocoumarin-resistant bacteria with new gyramide analogs that inhibit DNA gyrase” (Medchemcomm, 2017)
Values after ≈ are worked out from the molar mass of the structure shown. Active and inactive are the calls of the source. The rule behind the calls is not given here.

Key:
Escherichia coli [1] = assay: Ratio of MIC for Escherichia coli MC4100 to MIC for Escherichia coli BAS849; assay type: functional
Pseudomonas aeruginosa = assay: Antibacterial activity against Pseudomonas aeruginosa after 16 to 18 hrs by broth microdilution method; assay type: functional
Escherichia coli [2] = assay: Antibacterial activity against gyramide-resistant Escherichia coli JW5503 harboring GyrA His45Tyr mutant after 16 to 18 hrs by broth microdilution method; assay type: functional
Bacillus cereus = assay: Antibacterial activity against Bacillus cereus after 16 to 18 hrs by broth microdilution method; assay type: functional
Enterococcus faecium = assay: Antibacterial activity against Enterococcus faecium after 16 to 18 hrs by broth microdilution method; assay type: functional
Enterococcus faecalis = assay: Antibacterial activity against Enterococcus faecalis after 16 to 18 hrs by broth microdilution method; assay type: functional
Bacillus subtilis = assay: Antibacterial activity against Bacillus subtilis after 16 to 18 hrs by broth microdilution method; assay type: functional
Escherichia coli [3] = assay: Antibacterial activity against Escherichia coli UPEC after 16 to 18 hrs by broth microdilution method; assay type: functional
Escherichia coli [4] = assay: Antibacterial activity against Escherichia coli BAS849 after 16 to 18 hrs by broth microdilution method; assay type: functional
Escherichia coli [5] = assay: Ratio of MIC for gyramide-resistant Escherichia coli JW5503 harboring GyrA Pro35Thr mutant to MIC for Escherichia coli JW5503; assay type: functional
Escherichia coli [6] = assay: Antibacterial activity against Escherichia coli JW5503 overexpressing gyrA/gyrB in presence of IPTG induction after 16 hrs by broth microdilution method; assay type: functional; conditions: JW5503, 16 h
Escherichia coli [7] = assay: Antibacterial activity against Escherichia coli JW5503 after 16 to 18 hrs by broth microdilution method; assay type: functional
Escherichia coli [8] = assay: Ratio of MIC for novobiocin-resistant Escherichia coli CC5 harboring GyrB Arg136His mutant to MIC for Escherichia coli HB101; assay type: functional
Escherichia coli [9] = assay: Antibacterial activity against ciprofloxacin-resistant Escherichia coli JW5503 harboring GyrA Asp87Tyr mutant after 16 to 18 hrs by broth microdilution method; assay type: functional
Streptococcus agalactiae = assay: Antibacterial activity against Streptococcus agalactiae after 16 to 18 hrs by broth microdilution method; assay type: functional
Escherichia coli [10] = assay: Ratio of MIC for ciprofloxacin-resistant Escherichia coli JW5503 harboring GyrB Ser464Phe mutant to MIC for Escherichia coli JW5503; assay type: functional
[11] = Ratio of MIC for Escherichia coli BW25113 to MIC for Escherichia coli JW5503; assay type: functional
DNA gyrase = DNA gyrase (Escherichia coli, UniProt P0AES4+P0AES6); assay: Inhibition of Escherichia coli DNA gyrase assessed as inhibition of pUC19 supercoiling after 30 mins by agarose gel electrophoresis; assay type: protein-complex assay
Shigella flexneri = assay: Antibacterial activity against Shigella flexneri after 16 to 18 hrs by broth microdilution method; assay type: functional
Escherichia coli [12] = assay: Ratio of MIC for gyramide-resistant Escherichia coli JW5503 harboring GyrA Ser97Pro mutant to MIC for Escherichia coli JW5503; assay type: functional
Escherichia coli [13] = assay: Antibacterial activity against Escherichia coli BW25113 after 16 to 18 hrs by broth microdilution method; assay type: functional
Escherichia coli [14] = assay: Antibacterial activity against Escherichia coli MC4100 after 16 to 18 hrs by broth microdilution method; assay type: functional
Escherichia coli [15] = assay: Antibacterial activity against gyramide-resistant Escherichia coli JW5503 harboring GyrA Ser97Pro mutant after 16 to 18 hrs by broth microdilution method; assay type: functional
Acinetobacter baumannii = assay: Antibacterial activity against Acinetobacter baumannii clinical isolate after 16 to 18 hrs by broth microdilution method; assay type: functional
Streptococcus pyogenes = assay: Antibacterial activity against Streptococcus pyogenes after 16 to 18 hrs by broth microdilution method; assay type: functional
Escherichia coli [16] = assay: Antibacterial activity against gyramide-resistant Escherichia coli JW5503 harboring GyrA Pro35Thr mutant after 16 to 18 hrs by broth microdilution method; assay type: functional
Klebsiella pneumoniae = assay: Antibacterial activity against Klebsiella pneumoniae after 16 to 18 hrs by broth microdilution method; assay type: functional
Salmonella typhimurium = assay: Antibacterial activity against Salmonella enterica subsp. enterica serovar Typhimurium after 16 to 18 hrs by broth microdilution method; assay type: functional
Escherichia coli [17] = assay: Ratio of MIC for ciprofloxacin-resistant Escherichia coli JW5503 harboring GyrA Ser83Leu mutant to MIC for Escherichia coli JW5503; assay type: functional
Morganella morganii = assay: Antibacterial activity against Morganella morganii clinical isolate after 16 to 18 hrs by broth microdilution method; assay type: functional
Escherichia coli [18] = assay: Antibacterial activity against ciprofloxacin-resistant Escherichia coli JW5503 harboring GyrA Asp87Gly mutant after 16 to 18 hrs by broth microdilution method; assay type: functional
Escherichia coli [19] = assay: Antibacterial activity against Escherichia coli JW5503 simultaneously overexpressing gyrA/gyrB in presence of IPTG induction after 16 hrs by broth microdilution method; assay type: functional, organism-based
Escherichia coli [20] = assay: Antibacterial activity against Escherichia coli JW5503 overexpressing gyrB in presence of IPTG induction after 16 hrs by broth microdilution method; assay type: functional; conditions: JW5503, 16 h
Escherichia coli [21] = assay: Ratio of MIC for gyramide-resistant Escherichia coli JW5503 harboring GyrB Ser464Phe mutant to MIC for Escherichia coli JW5503; assay type: functional
Escherichia coli [22] = assay: Antibacterial activity against gyramide-resistant Escherichia coli JW5503 harboring GyrA Phe96Leu mutant after 16 to 18 hrs by broth microdilution method; assay type: functional
[23] = molecular target: DNA gyrase (Escherichia coli) (UniProt P0AES6+P0AES4); assay: Inhibition of Escherichia coli DNA gyrase ATPase activity up to 100 uM using DNA as substrate after 60 mins; assay type: protein-complex assay
Edwardsiella tarda = assay: Antibacterial activity against Edwardsiella tarda clinical isolate after 16 to 18 hrs by broth microdilution method; assay type: functional
Escherichia coli [24] = assay: Ratio of MIC for ciprofloxacin-resistant Escherichia coli JW5503 harboring GyrA Asp87Gly mutant to MIC for Escherichia coli JW5503; assay type: functional
Escherichia coli [25] = assay: Ratio of MIC for gyramide-resistant Escherichia coli JW5503 harboring GyrA Phe96Leu mutant to MIC for Escherichia coli JW5503; assay type: functional
Escherichia coli [26] = assay: Ratio of MIC for novobiocin-resistant Escherichia coli LE316 harboring GyrB Arg136Val mutant to MIC for Escherichia coli HB101; assay type: functional
Escherichia coli [27] = assay: Ratio of MIC for ciprofloxacin-resistant Escherichia coli JW5503 harboring GyrA Asp87Tyr mutant to MIC for Escherichia coli JW5503; assay type: functional
Escherichia coli [28] = assay: Antibacterial activity against Escherichia coli JW5503 overexpressing gyrA in absence of IPTG induction after 16 hrs by broth microdilution method; assay type: functional; conditions: JW5503, 16 h
Escherichia coli [29] = assay: Antibacterial activity against Escherichia coli JW5503 overexpressing gyrA/gyrB in absence of IPTG induction after 16 hrs by broth microdilution method; assay type: functional; conditions: JW5503, 16 h
Escherichia coli [30] = assay: Antibacterial activity against Escherichia coli JW5503 overexpressing gyrA in presence of IPTG induction after 16 hrs by broth microdilution method; assay type: functional; conditions: JW5503, 16 h
[31] = test system: Staphylococcus saprophyticus; assay: Antibacterial activity against Staphylococcus saprophyticus clinical isolate after 16 to 18 hrs by broth microdilution method; assay type: functional
Escherichia coli [32] = assay: Ratio of MIC for novobiocin-resistant Escherichia coli CC7 harboring GyrB Arg136Ser mutant to MIC for Escherichia coli HB101; assay type: functional
Escherichia coli [33] = assay: Antibacterial activity against Escherichia coli HB101 after 16 to 18 hrs by broth microdilution method; assay type: functional
[34] = test system: Staphylococcus epidermidis; assay: Antibacterial activity against Staphylococcus epidermidis clinical isolate after 16 to 18 hrs by broth microdilution method; assay type: functional
Escherichia coli [35] = assay: Ratio of MIC for gyramide-resistant Escherichia coli JW5503 harboring GyrA His45Tyr mutant to MIC for Escherichia coli JW5503; assay type: functional
Escherichia coli [36] = assay: Antibacterial activity against gyramide-resistant Escherichia coli JW5503 harboring GyrB Thr508Met mutant after 16 to 18 hrs by broth microdilution method; assay type: functional
Staphylococcus aureus = assay: Antibacterial activity against Staphylococcus aureus subsp. aureus clinical isolate after 16 to 18 hrs by broth microdilution method; assay type: functional
Escherichia coli [37] = assay: Antibacterial activity against Escherichia coli HB101 after 16 to 18 hrs in presence of PAbetaN by broth microdilution method; assay type: functional
Escherichia coli [38] = assay: Antibacterial activity against Escherichia coli JW5503 transfected with empty vector in absence of IPTG induction after 16 hrs by broth microdilution method; assay type: functional; conditions: JW5503, 16 h
Klebsiella aerogenes = assay: Antibacterial activity against Enterobacter aerogenes clinical isolate after 16 to 18 hrs by broth microdilution method; assay type: functional
Escherichia coli [39] = assay: Antibacterial activity against ciprofloxacin-resistant Escherichia coli JW5503 harboring GyrA Ser83Leu mutant after 16 to 18 hrs by broth microdilution method; assay type: functional

With N#Cc1cccc(S(=O)(=O)N[C@@H]2CCN(Cc3ccc(-c4ccccc4)cc3)C2)c1 the Ratio (Escherichia coli [1]) was 8, the MIC (Pseudomonas aeruginosa) was > 16 µg/mL and the MIC (Escherichia coli [2]) was 10 µg/mL (≈ 24 µM). The MIC (Bacillus cereus) was > 16 µg/mL, the MIC (Enterococcus faecium) was > 16 µg/mL and the MIC (Enterococcus faecalis) was > 16 µg/mL. For the same compound, the MIC (Bacillus subtilis) was > 16 µg/mL, the MIC (Escherichia coli [3]) was 16 µg/mL (≈ 38.3 µM) and the MIC (Escherichia coli [4]) was 1 µg/mL (≈ 2.4 µM). The Ratio (Escherichia coli [5]) was 10 - 100, the MIC (Escherichia coli [6]) was 0.1 µg/mL and the MIC (Escherichia coli [7]) was 0.1 µg/mL (≈ 0.24 µM). For the same compound, the Ratio (Escherichia coli [8]) was 2 - 4, the MIC (Escherichia coli [9]) was 0.4 µg/mL (≈ 0.958 µM) and the MIC (Streptococcus agalactiae) was > 16 µg/mL. The Ratio (Escherichia coli [10]) was 2 - 4, the Ratio [11] was 160 and the IC50 (DNA gyrase) was 52 nM. The MIC (Shigella flexneri) was 8 µg/mL (≈ 19.2 µM), the Ratio (Escherichia coli [12]) was 10 - 100 and the MIC (Escherichia coli [13]) was 16 µg/mL (≈ 38.3 µM). The MIC (Escherichia coli [14]) was 8 µg/mL (≈ 19.2 µM), the MIC (Escherichia coli [15]) was > 10 µg/mL and the MIC (Acinetobacter baumannii) was > 16 µg/mL. For the same compound, the MIC (Streptococcus pyogenes) was > 16 µg/mL, the MIC (Escherichia coli [16]) was 10 µg/mL (≈ 24 µM) and the MIC (Klebsiella pneumoniae) was > 16 µg/mL. For the same compound, the MIC (Salmonella typhimurium) was 2 µg/mL (≈ 4.79 µM), the Ratio (Escherichia coli [17]) was 2 - 4 and the MIC (Morganella morganii) was > 16 µg/mL. The MIC (Escherichia coli [18]) was 0.4 µg/mL (≈ 0.958 µM), the Activity (Escherichia coli [19]) was “Active” and the MIC (Escherichia coli [20]) was 0.1 µg/mL. For the same compound, the Ratio (Escherichia coli [21]) was 10 - 100, the MIC (Escherichia coli [22]) was 10 µg/mL (≈ 24 µM) and the inhibition [23] was “inactive”. For the same compound, the MIC (Edwardsiella tarda) was 16 µg/mL (≈ 38.3 µM), the Ratio (Escherichia coli [24]) was 2 - 4 and the Ratio (Escherichia coli [25]) was 10 - 100. For the same compound, the Ratio (Escherichia coli [26]) was 2 - 4, the Ratio (Escherichia coli [27]) was 2 - 4 and the MIC (Escherichia coli [28]) was 0.2 µg/mL (≈ 0.479 µM). The MIC (Escherichia coli [29]) was 0.2 µg/mL (≈ 0.479 µM), the MIC (Escherichia coli [30]) was 0.1 µg/mL and the MIC [31] was > 16 µg/mL. For the same compound, the Ratio (Escherichia coli [32]) was 2 - 4, the MIC (Escherichia coli [33]) was > 16 µg/mL and the MIC [34] was > 16 µg/mL. The Ratio (Escherichia coli [35]) was 10 - 100, the MIC (Escherichia coli [36]) was 10 µg/mL (≈ 24 µM) and the MIC (Staphylococcus aureus) was > 16 µg/mL. The MIC (Escherichia coli [37]) was 0.1 µg/mL, the MIC (Escherichia coli [38]) was 0.2 µg/mL (≈ 0.479 µM) and the MIC (Klebsiella aerogenes) was > 16 µg/mL. It also gave an MIC (Escherichia coli [39]) of 0.2 µg/mL (≈ 0.479 µM).
